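Where inhibition never reached the appropriate level, the endpoint shown equals the highest concentration tested. Otherwise, values were interpolated linearly from a five-concentration, 48-hour dose response in 96-well plates. Here, GI50 denotes the concentration required for 50% inhibition of growth. The concentration for full growth arrest is given as TGI.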
What was measured:
Assay in all cases: NCI-60 cell line screen, 48 h
[1] = test system: ACHN renal
[2] = test system: HOP-62 NSCLC
[3] = test system: NCI-H522 lung
[4] = test system: RPMI-8226 leukemia
[5] = test system: UACC-62 melanoma
[6] = test system: SF-295 CNS
[7] = test system: SF-268 CNS
[8] = test system: SN12C renal
[9] = test system: HS 578T breast
[10] = test system: MCF7 breast

SMILES	GI50 [1] [µM]	TGI [1] [µM]	GI50 [2] [µM]	TGI [2] [µM]	GI50 [3] [µM]	TGI [3] [µM]	GI50 [4] [µM]	TGI [4] [µM]	GI50 [5] [µM]	TGI [5] [µM]	GI50 [6] [µM]	TGI [6] [µM]	GI50 [7] [µM]	TGI [7] [µM]	GI50 [8] [µM]	TGI [8] [µM]	GI50 [9] [µM]	TGI [9] [µM]	GI50 [10] [µM]	TGI [10] [µM]
O=C([O-])c1ccccc1Nc1ccccn1.O=C([O-])c1ccccc1Nc1ccccn1.[Ni+2]	> 100	> 100	> 100	> 100	> 100	> 100	> 100	> 100	> 100	> 100	> 100	> 100	75.7	> 100	> 100	> 100	–	–	–	–
COc1ccc(N2C(C)=C(C#N)C34C(=O)N(c5ccccc5)C(=O)C3=C(O)C=CC24O)cc1 (configuration not stated)	18.2	45.6	22.7	75.8	–	–	3.44	19.3	5.06	18.7	3.49	15.1	16.6	80.2	10	21.9	24.1	> 100	10.6	34.9
C[N+](C)(C)CC(=O)N/N=C(/Cc1nc2c3c(ccc2[nH]c1=O)C(=O)c1ccccc1C3=O)C(=O)Nc1ccc(Cl)c(Cl)c1	–	> 100	–	> 100	–	> 100	–	> 100	–	> 100	–	> 100	–	> 100	–	> 100	–	–	–	–
CCCc1[nH]nc(CCC(=O)N(Cc2ccccc2)Cc2ccccc2)c1CC	–	> 100	–	> 100	–	> 100	–	> 100	–	> 100	–	> 100	–	> 100	–	> 100	–	–	–	–
Cc1cccc(NC(=O)CC(=O)N2N=C(N(CCC#N)c3ccc(Cl)cc3)CC2c2ccccc2)c1 (configuration not stated)	–	> 100	–	> 100	–	> 100	–	–	–	> 100	–	> 100	–	> 100	–	> 100	–	–	–	–
COC(=O)[C@]12CC[C@@H](C)[C@H](C)[C@@H]1C1=CC[C@@H]3[C@@]4(C)C[C@@H](OC(C)=O)[C@H](O)[C@@](C)(COC(C)=O)[C@@H]4[C@H](O)C[C@@]3(C)[C@]1(C)CC2	2.83	9.17	1.89	4.1	1.94	4.33	2.4	8.06	–	–	1.82	4.07	3.11	13.6	–	–	2.95	12.6	2.01	5.71
CCCC[C@H](NC(=O)[C@H]1CCCN1C)C(=O)N(C)[C@H](C[C@@H](OC(C)=O)c1nc(C(=O)N[C@@H](Cc2ccccc2)C[C@H](C)C(=O)OCC)cs1)C(C)C	–	–	0.0439	> 33.3	0.00341	0.0143	0.00399	4.84	0.00489	> 33.3	0.0139	4.13	0.0217	25.2	0.0316	8.41	0.0186	6.92	< 0.00333	> 33.3
Cc1ccc(-c2c(N)[n+]([O-])c3ccccc3[n+]2[O-])cc1	–	29.1	–	31	–	3.21	–	> 100	–	20.1	–	45.1	–	73.8	–	27.8	–	–	–	–
N#C/C(=C1\OC(=O)C(c2ccc(Br)cc2)=C1O)c1ccc(Br)cc1	–	29.6	–	33.3	–	25.6	–	43.6	–	25.9	–	32.8	–	29.5	–	23.6	–	–	–	–
Nc1c(C(=O)Nc2cccc([N+](=O)[O-])c2)sc2nc3c(cc12)C(O)CCC3 (configuration not stated)	30.6	> 100	6.66	> 100	6.11	> 100	–	–	5.93	> 100	4.35	> 54	9.62	> 89.8	7.39	> 100	11	> 100	3.14	> 100
CNC(=O)OCc1nc(SC2CCCCO2)n(C)c1COC(=O)NC (configuration not stated)	–	–	–	> 100	–	> 100	–	> 100	–	> 100	–	> 100	–	> 100	–	> 100	–	–	–	> 100
CN(C)/C=C/c1nnc([N+](=O)[O-])s1	–	31.9	–	51.5	–	3.27	–	–	–	35.4	–	39.4	–	42.1	–	47.7	–	42.6	–	8.01
COc1cccc(NC(=O)CC(=O)N2N=C(N(CCC#N)c3ccc(Cl)cc3)CC2c2ccccc2)c1 (configuration not stated)	–	> 100	–	> 100	–	> 100	–	> 100	–	> 100	–	> 100	–	> 100	–	> 100	–	–	–	–
CC(=O)NNc1nc(C)c(C(=O)NNC(=O)C(=O)Nc2ccccc2C#N)s1	–	> 100	–	> 100	–	> 100	–	> 100	–	> 100	–	> 100	–	> 100	–	> 100	–	–	–	–
O=C1c2ccccc2-c2c1c1ccccc1c(=O)n2CCCNCCCNCCCn1c2c(c3ccccc3c1=O)C(=O)c1ccccc1-2	< 0.01	0.388	< 0.01	–	< 0.01	0.0554	–	–	0.0434	0.346	0.0151	1.26	0.231	4.13	< 0.01	< 0.0303	0.0984	1.28	0.0382	0.18
COc1cc2c(cc1OC)C(N(C)C)C(c1ccccc1)=C2Cl (configuration not stated)	–	–	–	98.8	–	21.7	–	46.3	–	–	–	49.7	–	–	–	43.3	–	–	–	–
NC(=S)N/N=C(/CC(=O)c1ccccc1)C(=O)Nc1ccc(Cl)c(Cl)c1	–	> 100	–	> 100	–	59.4	–	> 100	–	> 100	–	> 100	–	> 100	–	> 100	–	–	–	–
Cc1ccc(C(=O)O/N=C2/CCC/C2=C\c2ccccc2)cc1	–	> 100	–	> 100	–	> 100	–	> 100	–	> 100	–	> 100	–	> 100	–	> 100	–	–	–	–
CC1=NOC(=O)/C1=C/c1ccccc1O	–	> 100	–	> 100	–	> 100	–	–	–	> 100	–	> 100	–	> 100	–	> 100	–	–	–	–
Cc1cc(N(CCC#N)S(=O)(=O)c2ccccc2)ccc1/C=C1N=C(/C=C/c2ccccc2)OC\1=O	–	> 100	–	> 100	–	> 100	–	> 100	–	> 100	–	> 100	–	> 100	–	> 100	–	–	–	–
C=CCC1([C@H](C)[C@@H](OC(C)=O)c2cc(OC)c(OC)c(OC)c2)C[C@@H](OC)CCC1=O (some centres not stated)	–	41.4	–	85.3	–	25.4	–	50.3	–	34.9	–	39.7	–	50.7	–	37	–	–	–	–

SMILES	GI50 [1] [µM]	TGI [1] [µM]	GI50 [2] [µM]	TGI [2] [µM]	GI50 [3] [µM]	TGI [3] [µM]	GI50 [4] [µM]	TGI [4] [µM]	GI50 [5] [µM]	TGI [5] [µM]	GI50 [6] [µM]	TGI [6] [µM]	GI50 [7] [µM]	TGI [7] [µM]	GI50 [8] [µM]	TGI [8] [µM]	GI50 [9] [µM]	TGI [9] [µM]	GI50 [10] [µM]	TGI [10] [µM]
CCCCCCCCCc1cc(=O)c2ccc(OCc3ccccc3)cc2o1	–	> 100	–	> 100	–	> 100	–	–	–	> 100	–	> 100	–	> 100	–	> 100	–	–	–	–
CC1CCCCc2nc3c(c(=O)n21)CCCC3 (configuration not stated)	–	> 100	–	> 100	–	> 100	–	–	–	> 100	–	> 100	–	> 100	–	> 100	–	–	–	–
C=C1C(=O)O[C@H]2[C@H]1CC/C(COC(=O)NCc1ccccc1OC)=C\CC[C@@]1(C)O[C@@H]21	1.27	2.85	3.69	14.4	0.351	1.92	1.77	6.24	–	–	5.02	18.8	2.2	6.74	–	–	3.4	19	–	–
COc1ccccc1NC(=O)CC(=O)N1N=C(C)C(N=Nc2ccc(S(N)(=O)=O)cc2)C1=O (configuration not stated)	–	> 100	–	> 100	–	> 100	–	> 100	–	> 100	–	> 100	–	> 100	–	> 100	–	–	–	–
Cc1ccncc1.[O]=[Ge].[O]=[Ge].[O]=[Ge].[O]=[Ge].[O]=[Ge].[O]=[Ge][OH].[O]=[Ge][OH]	> 100	> 100	> 100	> 100	–	–	> 100	> 100	> 100	> 100	> 100	> 100	> 100	> 100	> 100	> 100	–	–	–	–
C=C1C(=O)O[C@H]2[C@H]1[C@H](OC(=O)/C(C)=C\C)CC(=C)[C@@H]1[C@H](O)[C@H]3O[C@@]3(C)[C@@]12O	–	> 100	–	> 100	–	> 100	–	> 100	–	> 100	–	> 100	–	> 100	–	> 100	–	–	–	–
CN(C(=O)C12C3C4C5C3C1(C(=O)O)C5C42)C(C)(C)C (configuration not stated)	–	> 100	–	> 100	–	> 100	–	> 100	–	> 100	–	> 100	–	> 100	–	> 100	–	–	–	–
Nc1cc2cccc[n+]2c2cc(Cl)ccc12	34.6	–	–	–	11.8	33	2.86	29.9	18.7	45.9	23.1	–	4.03	21.7	5.56	35.4	16.6	51.4	17.9	63
O=C(c1ccccc1)C1N=NCC1c1ccc([N+](=O)[O-])cc1 (configuration not stated)	–	> 100	–	> 100	–	–	–	> 100	–	> 100	–	> 100	–	> 100	–	> 100	–	> 100	–	56.9
CCOC(=O)C1=C(C)N(Cc2ccccc2)C(C)=C(C(=O)OCC)C1c1ccccc1O	–	> 100	–	99.2	–	74.5	–	–	–	50.2	–	> 100	–	> 100	–	> 100	–	–	–	–
CC(=O)NC(CCCNCc1ccccc1)C(=O)NCc1ccccc1 (configuration not stated)	–	> 100	–	> 100	–	> 100	–	> 100	–	> 100	–	> 100	–	> 100	–	> 100	–	–	–	–
COc1nc(NC2OCC(OC(C)=O)C(OC(C)=O)C2OC(C)=O)c(N=CC=Nc2c(NC3OCC(OC(C)=O)C(OC(C)=O)C3OC(C)=O)nc(OC)n(C)c2=O)c(=O)n1C (configuration not stated)	–	> 100	–	> 100	–	> 100	–	> 100	–	> 100	–	> 100	–	> 100	–	> 100	–	–	–	–
O=c1c2c([nH]c3cc4c(cc13)OCO4)-c1ccccc1CC2	–	> 100	–	> 100	–	–	–	> 100	–	> 100	–	> 100	–	> 100	–	> 100	–	–	–	–
COc1ccccc1NC(=O)C1=C(C)NC(C)=C(C(=O)Nc2ccccc2OC)C1c1ccccc1F	–	> 100	–	> 100	–	–	–	> 100	–	> 100	–	> 100	–	> 100	–	> 100	–	–	–	–
COc1ccc2c(c1)C(O)(C(F)(F)F)c1cc(C(=O)C(F)(F)F)c3ccccc3c1N2 (configuration not stated)	–	18.1	–	–	–	20.6	–	–	–	15.4	–	26.5	–	24.1	–	–	–	–	–	–
COC(=O)CCC1CCc2c(OC)ccc(O)c2C1=O (configuration not stated)	–	> 100	–	> 100	–	> 100	–	> 100	–	> 100	–	> 100	–	> 100	–	> 100	–	–	–	–
COc1ccc(-c2cc(=O)c3cc4c(cc3[nH]2)OCO4)c(OC)c1OC	–	> 100	–	> 100	–	> 100	–	> 100	–	> 100	–	> 100	–	> 100	–	> 100	–	–	–	–
CC(C)(C)OC(=O)C#CC[C@H]1CCCC1/C=C/C(O)=C1/C(=O)NC(CCCNC(=O)OC(C)(C)C)C1=O (some centres not stated)	–	> 100	–	> 100	–	40.7	–	84.5	–	34.9	–	> 100	–	75.3	–	> 100	–	–	–	–
COC(=O)c1csnn1	–	> 100	–	> 100	–	> 100	–	> 100	–	> 100	–	> 100	–	> 100	–	> 100	–	–	–	–
COC(=O)CCC(NC(=S)N/N=C(\C)c1nccs1)C(=O)OC (configuration not stated)	–	> 100	–	> 100	–	78.4	–	> 100	–	> 100	–	> 100	–	> 100	–	> 100	–	–	–	–

Source: PubChem BioAssay (NCI)
